Data taken from patent publication US9353067B2, “Heterocyclic compounds and uses thereof in the treatment of sexual disorders” (ATIR Holding S.A., priority 2011, dated 2016).

Assays:
[1] = target: Serotonin 5-HT1A receptor (Homo sapiens (Human), UniProt P08908); assay: Competitive binding, 8-OH-DPAT radioligand
Procedure: (§1) R-55 (which comprises a 3-hydroxyphenyl moiety) and the structurally related compounds N-108 (2-{[4-(2-ethoxyphenyl)piperazin-1-yl]methyl}quinazolin-4(3H)-one) and B-39 (7-chloro-2-((5,6-dihydro-4-(2-methoxyphenyl)pyridin-1(2H)-yl)methyl)quinazolin-4(3H)-one) were assayed for competitive binding to a variety of receptors, including D4.4 type dopamine receptor, in order to assess their specificity for D4.4 dopamine receptors.
(§2) The receptors were expressed as human recombinant proteins in CHO cells, except for adrenergic α1 and α2 receptors which were expressed in Wistar rat brain and cerebral cortex cells, respectively, and melanocortin MC4 receptor which was expressed in human recombinant HEK-293 cells. Binding was determined using the following radioligands in the presence of various concentrations of the tested compound:
1.5 nM 8-OH-DPAT for serotonin 5-HT1A receptor, and
(§3) The binding assays were performed in accordance with procedures described in the literature (Greengrass & Bremner, 1979; Boyajian & Leslie, 1987; Broadhurst, 1988; Lewis, 2001; Sutton, 1995; Dearry, 1990; Zhou, 1990; Grandy, 1989; Hayes, 1992; Sokoloff, 1990; Van Tol, 1991; Van Tol 1992; Sunahara, 1991; Weinshank, 1991; Schioth, 1996; Schioth 1997; Martin & Humphrey, 1994; May, 2003; Wolf & Schutz, 1997).

[2] = target: CRF1 receptor (Homo sapiens (Human), UniProt P34998); assay: Competitive binding, (Tyr0)-CRF radioligand
Procedure: as §1, §2
0.05 nM)(Tyr^0)-corticotropin releasing factor (CRF) for corticotropin releasing factor CRF1 receptor,
as §3

[3] = target: Dopamine D4.4 receptor (Homo sapiens (Human), UniProt P21917); assay: Competitive binding, spiperone radioligand
Procedure: as §1, §2
(§4) 0.16 nM, 0.7 nM and 1.2 nM spiperone, respectively, for dopamine D2S, D3 and D4.4 receptors,
as §3

[4] = target: Dopamine D3 receptor (Homo sapiens (Human), UniProt P35462); assay: Competitive binding, spiperone radioligand
Procedure: as §1, §2, §4, §3

[5] = target: Dopamine D2S receptor (Homo sapiens (Human), UniProt P14416); assay: Competitive binding, spiperone radioligand
Procedure: as §1, §2, §4, §3

[6] = target: Serotonin 5-HT2C receptor (Homo sapiens (Human), UniProt P28335); assay: Competitive binding, mesulergine radioligand
Procedure: as §1, §2
1 nM mesulergine for serotonin 5-HT2C receptor.
as §3

[7] = target: Melanocortin MC4 receptor (Homo sapiens (Human), UniProt P32245); assay: Competitive binding, NDP-α-MSH radioligand
Procedure: as §1, §2
0.02 nM NDP-α-MSH for melanocortin MC4 receptor,
as §3

[8] = system: Adrenergic α2 receptor; assay: Competitive binding, rauwolscine radioligand; set-up: species or system Wistar rat
Procedure: as §1, §2
0.7 nM rauwolscine for adrenergic α2 receptor,
as §3

[9] = system: Adrenergic α1 receptor; assay: Competitive binding, prazosin radioligand; set-up: species or system Wistar rat
Procedure: as §1, §2
0.25 nM prazosin for adrenergic α1 receptor,
as §3

[10] = target: Dopamine D1 receptor (Homo sapiens (Human), UniProt P21728); assay: Competitive binding, SCH-23390 radioligand
Procedure: as §1, §2
(§5) 1.4 nM and 2 nM SCH-23390, respectively, for dopamine D1 and D5 receptors,
as §3

[11] = target: Dopamine D5 receptor (Homo sapiens (Human), UniProt P21918); assay: Competitive binding, SCH-23390 radioligand
Procedure: as §1, §2, §5, §3

Dopamine D4.4 receptor, sequence (P21917 whole entry): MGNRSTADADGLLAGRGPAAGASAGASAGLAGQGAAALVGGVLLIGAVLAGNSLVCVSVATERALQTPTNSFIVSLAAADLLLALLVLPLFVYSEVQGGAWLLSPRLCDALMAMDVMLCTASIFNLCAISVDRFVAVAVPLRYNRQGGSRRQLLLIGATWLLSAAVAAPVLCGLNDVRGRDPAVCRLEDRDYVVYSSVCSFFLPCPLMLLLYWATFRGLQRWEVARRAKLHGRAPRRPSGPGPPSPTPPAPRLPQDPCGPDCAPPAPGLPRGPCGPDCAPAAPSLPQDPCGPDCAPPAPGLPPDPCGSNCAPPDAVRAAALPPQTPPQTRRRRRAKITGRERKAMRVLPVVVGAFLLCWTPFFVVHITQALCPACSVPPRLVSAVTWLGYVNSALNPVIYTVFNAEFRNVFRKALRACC
Dopamine D5 receptor, sequence (P21918 whole entry): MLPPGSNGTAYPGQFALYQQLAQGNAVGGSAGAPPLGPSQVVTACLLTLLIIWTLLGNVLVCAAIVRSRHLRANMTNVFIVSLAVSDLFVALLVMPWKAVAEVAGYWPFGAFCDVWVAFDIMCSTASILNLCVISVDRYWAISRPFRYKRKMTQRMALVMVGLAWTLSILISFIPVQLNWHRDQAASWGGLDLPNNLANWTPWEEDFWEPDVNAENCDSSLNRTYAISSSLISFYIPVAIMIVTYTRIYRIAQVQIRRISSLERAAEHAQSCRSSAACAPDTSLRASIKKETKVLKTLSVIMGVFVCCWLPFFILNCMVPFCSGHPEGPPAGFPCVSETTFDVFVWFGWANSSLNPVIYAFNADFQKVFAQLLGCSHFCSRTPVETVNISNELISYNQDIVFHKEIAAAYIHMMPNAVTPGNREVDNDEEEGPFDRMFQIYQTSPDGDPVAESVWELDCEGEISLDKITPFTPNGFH
Dopamine D1 receptor, sequence (P21728 whole entry): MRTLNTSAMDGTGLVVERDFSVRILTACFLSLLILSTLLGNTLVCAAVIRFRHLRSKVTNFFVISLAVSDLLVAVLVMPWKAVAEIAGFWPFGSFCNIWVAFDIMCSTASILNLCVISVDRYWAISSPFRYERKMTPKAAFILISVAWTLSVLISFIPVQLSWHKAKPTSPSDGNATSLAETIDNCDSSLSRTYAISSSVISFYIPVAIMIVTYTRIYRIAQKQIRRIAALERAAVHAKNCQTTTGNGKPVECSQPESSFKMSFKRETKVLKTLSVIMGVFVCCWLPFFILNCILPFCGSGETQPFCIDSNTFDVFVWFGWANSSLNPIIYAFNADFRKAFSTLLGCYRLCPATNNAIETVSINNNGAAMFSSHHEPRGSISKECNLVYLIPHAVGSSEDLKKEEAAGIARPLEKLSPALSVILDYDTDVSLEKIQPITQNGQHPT
Serotonin 5-HT1A receptor, sequence (P08908 whole entry): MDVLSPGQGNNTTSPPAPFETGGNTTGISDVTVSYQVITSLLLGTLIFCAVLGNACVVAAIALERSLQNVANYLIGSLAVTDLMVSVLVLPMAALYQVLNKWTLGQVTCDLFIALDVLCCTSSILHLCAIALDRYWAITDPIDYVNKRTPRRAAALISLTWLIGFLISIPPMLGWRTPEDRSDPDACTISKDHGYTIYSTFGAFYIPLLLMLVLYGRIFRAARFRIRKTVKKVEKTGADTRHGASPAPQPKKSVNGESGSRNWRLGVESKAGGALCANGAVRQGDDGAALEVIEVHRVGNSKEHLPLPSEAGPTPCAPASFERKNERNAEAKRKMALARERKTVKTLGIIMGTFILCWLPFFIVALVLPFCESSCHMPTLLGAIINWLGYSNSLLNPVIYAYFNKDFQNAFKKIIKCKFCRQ
Melanocortin MC4 receptor, sequence (P32245 whole entry): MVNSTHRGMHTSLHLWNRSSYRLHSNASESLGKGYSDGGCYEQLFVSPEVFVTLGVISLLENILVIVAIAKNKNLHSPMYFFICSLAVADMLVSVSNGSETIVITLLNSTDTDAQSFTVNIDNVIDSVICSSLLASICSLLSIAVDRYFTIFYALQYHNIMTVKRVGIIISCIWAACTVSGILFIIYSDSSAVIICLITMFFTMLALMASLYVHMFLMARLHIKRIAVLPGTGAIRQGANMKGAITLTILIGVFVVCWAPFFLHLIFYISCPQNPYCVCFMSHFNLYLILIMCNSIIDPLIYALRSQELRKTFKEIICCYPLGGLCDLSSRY
CRF1 receptor, sequence (P34998 24-415): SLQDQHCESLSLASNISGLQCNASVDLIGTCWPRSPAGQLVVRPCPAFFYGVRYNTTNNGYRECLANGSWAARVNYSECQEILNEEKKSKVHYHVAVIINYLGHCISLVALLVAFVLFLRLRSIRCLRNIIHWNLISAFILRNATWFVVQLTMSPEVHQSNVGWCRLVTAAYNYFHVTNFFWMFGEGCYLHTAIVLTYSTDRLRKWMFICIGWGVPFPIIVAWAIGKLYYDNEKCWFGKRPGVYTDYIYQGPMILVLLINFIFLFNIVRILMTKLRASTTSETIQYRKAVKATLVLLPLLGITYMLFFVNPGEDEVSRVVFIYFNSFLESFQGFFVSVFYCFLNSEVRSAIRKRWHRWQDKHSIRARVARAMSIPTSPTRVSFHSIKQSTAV
Serotonin 5-HT2C receptor, sequence (P28335 33-458): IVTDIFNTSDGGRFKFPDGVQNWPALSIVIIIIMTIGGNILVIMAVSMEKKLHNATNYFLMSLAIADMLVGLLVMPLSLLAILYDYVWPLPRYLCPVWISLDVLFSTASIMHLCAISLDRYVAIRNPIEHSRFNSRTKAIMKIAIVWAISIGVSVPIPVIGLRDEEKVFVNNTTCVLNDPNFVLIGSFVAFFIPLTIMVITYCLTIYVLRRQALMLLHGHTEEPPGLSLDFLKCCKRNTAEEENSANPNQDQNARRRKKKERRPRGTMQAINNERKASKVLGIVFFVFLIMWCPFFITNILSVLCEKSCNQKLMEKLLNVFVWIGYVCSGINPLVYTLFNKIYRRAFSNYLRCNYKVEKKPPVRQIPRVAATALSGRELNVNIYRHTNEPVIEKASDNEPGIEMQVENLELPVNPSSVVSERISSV
Dopamine D3 receptor, sequence (P35462 whole entry): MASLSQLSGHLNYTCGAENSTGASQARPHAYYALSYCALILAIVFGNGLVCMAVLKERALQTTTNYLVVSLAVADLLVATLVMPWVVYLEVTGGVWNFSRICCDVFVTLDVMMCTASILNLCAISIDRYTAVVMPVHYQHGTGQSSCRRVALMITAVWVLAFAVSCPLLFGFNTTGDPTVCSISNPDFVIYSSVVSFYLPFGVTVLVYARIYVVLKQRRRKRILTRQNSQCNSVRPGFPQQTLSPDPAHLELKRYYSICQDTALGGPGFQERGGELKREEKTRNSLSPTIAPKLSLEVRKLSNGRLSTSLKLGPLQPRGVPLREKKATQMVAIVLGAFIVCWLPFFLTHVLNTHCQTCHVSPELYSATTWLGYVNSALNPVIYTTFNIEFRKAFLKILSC
Dopamine D2S receptor, sequence (P14416 other isoform, or with tags, fused parts or gaps): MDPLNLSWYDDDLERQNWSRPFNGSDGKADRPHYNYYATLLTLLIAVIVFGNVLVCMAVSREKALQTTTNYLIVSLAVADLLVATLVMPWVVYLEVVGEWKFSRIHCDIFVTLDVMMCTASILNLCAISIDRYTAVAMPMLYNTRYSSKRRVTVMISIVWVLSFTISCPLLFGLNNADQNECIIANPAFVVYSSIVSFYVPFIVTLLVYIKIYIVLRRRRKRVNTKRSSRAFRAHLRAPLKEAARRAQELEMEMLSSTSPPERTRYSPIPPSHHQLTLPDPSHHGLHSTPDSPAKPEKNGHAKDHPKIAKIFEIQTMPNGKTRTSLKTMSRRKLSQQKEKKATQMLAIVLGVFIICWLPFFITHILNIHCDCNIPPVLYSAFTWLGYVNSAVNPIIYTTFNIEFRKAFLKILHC

COc1ccccc1C1=CCN(Cc2nc3cc(Cl)ccc3c(=O)[nH]2)CC1 [Compound B-39, 7-chloro-2-((5,6-dihydro-4-(2-methoxyphenyl)pyridin-1(2H)-yl)methyl)quinazolin-4(3H)-one, reference compound]
Competitive binding (%) at 5 μM of tested compound [1]: 89% | Competitive binding (%) at 5 μM of tested compound [2]: −5% | Competitive binding (%) at 5 μM of tested compound ([3]; Dopamine D4.4 receptor, 5 μM): 57% | binding affinity to the D4.4 receptor (in words) ([3]; Table 8): high binding affinity | Competitive binding (%) at 5 μM of tested compound [4]: 32% | Competitive binding (%) at 5 μM of tested compound [5]: 46% | Competitive binding (%) at 5 μM of tested compound [6]: 56% | Competitive binding (%) at 5 μM of tested compound [7]: 5% | Competitive binding (%) at 5 μM of tested compound [8]: 72% | Competitive binding (%) at 5 μM of tested compound [9]: 54% | Competitive binding (%) at 5 μM of tested compound [10]: 4% | Competitive binding (%) at 5 μM of tested compound [11]: 7%
